From patent EP0221208B1, “Hair growth promoting compositions” (MEIJI SEIKA KAISHA LTD., priority 1985, dated 1987)

Tested on: Cynomolgus monkeys (Crab-eating macaques)
Test: Increase in temperature of the true skin after application to the skin surface (Test No. 2, net effect TE)
Type: in vivo
Settings: Test (ii); ester as penetration agent at 0.5% (w/v) or more in gel-like tonic formulation containing Substance MH-548
Experimental: For the purpose of confirming whether Substance P or Substance P-related peptide of the formula (II) is actually effective to increase the blood flow in the capillary blood vessels at a local area of the skin, we have conducted some experiments where the hair growth promoting formulation of this invention was applied to a local skin surface of monkies, and an increase in the temperature of the underlying true skin tissue below the local skin surface was measured, which should be considered to be invoked by such increase in the local blood flow at the local skin site owing to the vasodilating activity of Substance P or Substance P-related peptide of the formula (II).
Cynomolgus monkeys (Crab-eating macaques) (female, body weight 3.8-4.2 kg) were fixed each in a device for fixing the monkey. The hair was cut off from an area in the upper arms of each monkey. A probe of a thermometer for measurement of the temperature in a deep place (a thermometer commercially available from Telmo Co., Ltd., Japan) was sent into the hair-removed areas of each upper arm of the monkey, and the temperature in the true skin layer of the left and right upper arms of the monkey was measured before the administration of the active peptide for promoting the hair growth was made. […]
Thus, the following parameters were evaluated. […]

Compound: CCOC(=O)CCCCCCCCC(=O)OCC [di-ethyl sebacate]
- effect of increasing the temperature in the true skin (TE): better effect than isopropyl myristate and di-isopropyl adipate
